Assay results published in patent US20090010979A1, “Method of Controlling Termites” (BAYER CROPSCIENCE LP, priority 2004, published 2009).

Assay: Arrestant composition on silica with Premise 75WP distributed in soil: movement of components
Type: physicochemical
Settings: after several months
Protocol: (A) Preparation of the arrestant composition: A mixture of 5-methylpentacosane, 11-methylpentacosane, 9-Z-pentacosene, n-pentacosane, and n-hexamethylcosane in proportion of about 11.4:36.3:19.6:27.7:5.0 as a 0.06% (by weight) solution in acetone (0.06 g) was diluted into acetone and mixed with 149.4 g of Zeolex® 7A brand silica (J.M. Huber, Inc. USA) The acetone was removed by evaporation at 50° C. at 3.5 mm Hg to provide a smooth flowable powder. The powder was mixed with 850 g of Premise® 75WP (imidacloprid active ingredient), and milled to a consistent appearance.
(B) Use of the Arrestant Composition of Part (A): The final product is distributed in soil.

O=[N+]([O-])NC1=NCCN1Cc1ccc(Cl)nc1 [imidacloprid]
movement in soil: moves downward
